Data on 21 compounds can be found in patent publication US5486528A, “Basic ethers and process for the preparation thereof” (Egis Gyogyszergyar Rt., priority 1993, dated 1996).

Read-outs that look alike come from different tables or passages of the source.

The nature of data set [1]: Acute toxicity on mice (Litchfield and Wilcoxon). To be noted: mouse, in vivo, po. Here is the method:
The test was carried out according to the method of Litchfield and Wilcoxon [Litchfield, J. T. and Wilcoxon, F. W.: J. Pharmacol. Exp. Ther., 96, 99 (1949)] by using white mice belonging to the CFLP strain and weighing 10 to 22 g, 10 animals per dose. The test compounds were administered orally in a volume of 20 cm^3 /kg.

Data set [2] in a line: Acute toxicity on mice (Litchfield and Wilcoxon). To be noted: mouse, in vivo, ip.
Data set [3] deals with Male Wistar rats. The experiment in a line: Vogel test (drinking conflict test), anxiolytic effect. The format is in vivo, rat (Wistar). To be noted: ip, 0.5 h; rat, intraperitoneally, half an hour before testing; read-out: MED (minimum effective dose), Vogel test. How it is done:
1.1. Vogel test (drinking conflict test)
The anxiolytic effect was tested by using the method of Vogel et al. Male Wistar rats of 160 to 180 g body weight were kept free of food and drinking water for 24 and 48 hours, respectively. Test and carrier substances were administered intraperitoneally half an hour before testing. Animals within the experimental chamber were provided with drinking water through an inserted tube. After the animals' each twenty lapping for water the device emitted a 2 mA intensity electric shock through the drinking tube. During 5 minutes the shocks tolerated by the animals in order to quench their thirst were counted. The effect of treatment was expressed as the % increase of the tolerated shocks. The minimum effective dose (MED) was determined for each test compound [Volge, J. R., Beer, B., Clody, D. E.: Psychopharmacologia (Berl.) 21, 1 (1971)].

The next data set deals with mice. The experiment in a line: Effect on the spontaneous motor activity (Borsy), sedative effect. Format: in vivo, mouse. To be noted: for ED50: Mus musculus, po, 0.5 h, read-out: ID50, spontaneous motor activity. How it is done: 2.1. Effect on the spontaneous motor activity
The test was carried out according to the method of Borsy et al. Groups consisting of 3 mice each were treated orally with different doses of the compounds to be tested. Then the test animals were placed into a 10-channel Dews system equipment. In this equipment the number of interruptions of infrared beam within 30 minutes was counted. […] Int. Pharmacodyn. 124, 1 (1960)].

In data set [4] the test system is Male Wistar rats. Description: Conditioned avoidance response inhibition, antipsychotic effect. Format: in vivo, rat (Wistar). The note with it: rat, 30 mg/kg p.o.; ++ = p < 0.05. Here is the method: Conditioned avoidance response inhibition
The antipsychotic (neuroleptic) effect was measured by the inhibition of the learned conditioned avoidance reflex. The male Wistar rats, used for the study, were of 120-150 g body weight at the commencement of learning. A shuttle box was used as experimental device; it consists of two parts, 24×24.5×23 cm each, separated by a wall with a 6×9 cm gate. In response to a sutiable warning stimulus, in order to avoid the punishing (unconditioned) stimulus, animals within the box passed through the gate from one part to the other. The warning, i.e. conditioned stimulus (CS), a white light (1 Hz) blinking for 15 seconds, was applied at the place of the actual animal existence. The unconditioned stimulus (US), in form of 0.6 mA intensity electric shock, was randomly applied to the paw during the last 5 seconds of the conditioned stimulus. The animal's movement during the CS and US from one part of the box to the other, was defined as avoidance and escape responses, respectively. Both responses ceased the actual stimulus and stopped the trial. The time elapsed until the next trial (intertrial interval, ITI) was 15 seconds. While one experiment was carried out daily, an experiment consisted of 80 trials. Learning efficiency was expressed as percentage of the successful to the total avoidances. Effect of the neuroleptic drugs was examined in animals with stabilized conditioned reflexes and with at least 75% learning efficiency. Dosing was carried out once a week, one hour before the measurement in the shuttle box. To calculate the neuroleptic effect (50% inhibiting dose, ID50) , results obtained after the treatment were compared to those obtained on the previous day (controls).

The test system of another data set is gastric-acid secretion. Description: Gastric-acid-secretion test (Shay). The format is in vivo, rat. To be noted: po, read-out: Acid-secretion inhibition, ED50. How it is done: 2. […] The liberated gastric-acid content was determined by titration 4 hours after the ligature of the duodenum.
Data set [5] relates to erosion of the stomach wall. Description: Cytoprotective effect, ethanol erosion (Robert). Format: in vivo. To be noted: rat; for ED50: po; for Ratio of acid-secretion inhibition and erosion inhibition: ratio of ED50 values. How it is done:
3. The cytoprotective effect was determined according to the method of Robert [Robert, A.: Cytoprotection by prostaglandins. […] Rats weighing 200 to 250 g were used as test animals. 1 cm^3 of abs. ethanol was introduced to the stomach to produce an erosion of the stomach wall. The length and frequency of the lesions (erosion index and frequency) were measured and the percentage inhibition of lesion formation compared with vehicle-treated animals was calculated.

The next data set addresses T1, H^+ /K^+ -ATP-ase (Sus scrofa, UniProt P19156).
T1 construct: on partially purified pig's microsome specimen; from tissue; host or cells: pig stomach, partially purified microsomes
The experiment in a line: H+/K+-ATP-ase inhibition on partially purified pig's microsome specimen. Format: biochemical. Here is the method:
1. H^+ /K^+ -ATP-ase inhibition on pig's stomach
The test was carried out according to the method of Rabon and Sachs [E. C. Rabon et al.: Preparation of gastric H^+ K^+ -ATP-ase, Methods in Enzymology, 157, 649-651 (1988)]. The activity of the prepared enzyme was measured both in the presence as in the absence of K^+ ions. The difference in the libaration of phosphorus representing the activity of the enzyme was measured.

Where [6] appears, read: rat, p.o., 4 hours after ligature.

T1 sequence (P19156 2-1034 limits assumed): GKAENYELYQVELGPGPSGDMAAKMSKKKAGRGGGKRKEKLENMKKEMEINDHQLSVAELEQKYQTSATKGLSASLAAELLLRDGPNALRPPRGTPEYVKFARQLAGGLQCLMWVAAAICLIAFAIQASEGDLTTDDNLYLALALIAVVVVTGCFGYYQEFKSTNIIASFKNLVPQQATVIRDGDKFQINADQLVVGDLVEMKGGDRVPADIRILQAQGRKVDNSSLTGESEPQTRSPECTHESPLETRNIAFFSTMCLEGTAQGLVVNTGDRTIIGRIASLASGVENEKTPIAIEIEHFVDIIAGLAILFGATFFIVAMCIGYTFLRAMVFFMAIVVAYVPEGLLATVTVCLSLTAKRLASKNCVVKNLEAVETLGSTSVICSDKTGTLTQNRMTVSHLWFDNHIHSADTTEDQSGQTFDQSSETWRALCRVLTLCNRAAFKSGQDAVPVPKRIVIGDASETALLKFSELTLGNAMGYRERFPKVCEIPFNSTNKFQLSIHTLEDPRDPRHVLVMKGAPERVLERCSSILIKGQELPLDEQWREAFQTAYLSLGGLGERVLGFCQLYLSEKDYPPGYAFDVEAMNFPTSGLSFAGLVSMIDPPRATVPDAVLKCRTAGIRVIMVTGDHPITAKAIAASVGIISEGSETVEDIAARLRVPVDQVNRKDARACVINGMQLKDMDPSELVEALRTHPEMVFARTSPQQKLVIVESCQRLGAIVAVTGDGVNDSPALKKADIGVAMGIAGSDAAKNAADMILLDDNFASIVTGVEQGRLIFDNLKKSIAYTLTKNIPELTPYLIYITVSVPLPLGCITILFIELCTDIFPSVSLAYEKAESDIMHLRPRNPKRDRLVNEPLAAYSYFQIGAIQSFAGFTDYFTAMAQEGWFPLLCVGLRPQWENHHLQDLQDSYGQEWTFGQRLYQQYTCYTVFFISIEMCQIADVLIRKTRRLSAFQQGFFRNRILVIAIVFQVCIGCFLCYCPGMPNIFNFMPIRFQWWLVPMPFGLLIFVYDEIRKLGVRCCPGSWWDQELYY
T1 sequence (P18434 whole entry partner): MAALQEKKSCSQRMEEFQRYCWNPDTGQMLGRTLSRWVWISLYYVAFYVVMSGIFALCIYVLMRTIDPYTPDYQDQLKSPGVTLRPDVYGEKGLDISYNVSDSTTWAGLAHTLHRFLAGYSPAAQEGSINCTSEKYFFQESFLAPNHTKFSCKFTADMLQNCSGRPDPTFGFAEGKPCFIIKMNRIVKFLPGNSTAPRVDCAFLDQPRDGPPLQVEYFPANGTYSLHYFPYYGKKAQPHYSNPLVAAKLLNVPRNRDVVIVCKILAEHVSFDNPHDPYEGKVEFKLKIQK

Take `CC(C)CCC(/C=C/c1ccc(Cl)cc1)=N\OCC(O)CNC1CCCCC1` (racemic) [Example 36, (R,S)-1-(4-Chlorophenyl)-6-methyl-3-(E)-[3-(cyclohexylamino)-2-hydroxypropoxyimino]-1-(E)-heptene]: the LD50 – broadly, the dose at which mortality reaches 50% – at 336 h is above 1000 mg/kg in data set [1] (mice, 14 days observation) and 30 to 100 mg/kg in data set [2] (mice, 14 days observation).
Regarding `CCC(/C=C/c1ccc(Cl)cc1)=N\OCC(C)CN(C)C` (racemic) [Example 19, (R,S)-1-(4-Chlorophenyl)-3-(E)-[3-(dimethylamino)-2-methylpropoxyimino]-1-(E)-pentene], in the data set on Male Wistar rats [3], the minimal effective dose was found to be 10 mg/kg. In the data set on mice (mice, orally, 30 minutes), the ED50 is above 100 mg/kg. In addition, the “Inhibition of the conditioned reflex (%)” value with Male Wistar rats [4] is recorded as 19%.
As for `CN1C(=O)CN=C(c2ccccc2)c2cc(Cl)ccc21` [Diazepam, reference compound], the ED50 with mice amounted to 23 mg/kg.
Turning to `COc1ccc2[nH]c([S+]([O-])Cc3ncc(C)c(OC)c3C)nc2c1` (stereo not shown) [Omeprazole, reference compound], the ED50 in the data set on gastric-acid secretion (setting [6]) was found to be 3.9 mg/kg; in data set [5] (1 cm^3 abs. ethanol), 4.5 mg/kg. Moreover, the “Ratio of acid-secretion inhibition and erosion inhibition” value in data set [5] (p.o.) came out at 0.9.
For `CC(C)CCC(/C=C/c1ccc(Br)cc1)=N\OCCCN1CCCCC1` [Example 42, 1-(4-Bromophenyl)-6-methyl-3-(E)-[(3-N-piperidinyl)-propoxyimino]-1-(E)-heptene], the LD50 at 336 h was above 1000 mg/kg in data set [1] and 100 to 300 mg/kg in data set [2]. Also, the IC50 – broadly, the point on the concentration scale where inhibition reaches its midpoint – against H^+ /K^+ -ATP-ase was found to be 7 µM.
For the compound `CN1CCN(CC(=O)N2c3ccccc3C(=O)Nc3cccnc32)CC1` [Pirenzepine, reference compound], the figures for the ED50 (in the data set with gastric-acid secretion (setting [6]); in data set [5] (1 cm^3 abs. ethanol)) were 7.9 mg/kg and 18.6 mg/kg, respectively. The “Ratio of acid-secretion inhibition and erosion inhibition” value in data set [5] (p.o.) is recorded as 0.4.
Take `CCC(/C=C/c1ccccc1)=N\OCC(C)CN(C)C` (racemic) [Example 18, (R,S)-1-Phenyl-3-(E)-[3-(dimethylamino)-2-methylpropoxyimino]-1-(E)-pentene]: the minimal effective dose with Male Wistar rats [3] amounted to 1 mg/kg. Moreover, in the data set on mice (mice, orally, 100 mg/kg), the “inhibition of spontaneous motor activity at 100 mg/kg” value is recorded as 54%. Besides, in the data set with Male Wistar rats [4], the “Inhibition of the conditioned reflex (%)” value is on record as 12%.
As to `CC(C)CCC(/C=C/c1ccc(Cl)cc1)=N\OCCCN1CCCCCC1` [Example 35, 1-(Chlorophenyl)-6-methyl-3-(E)-[3-(hexahydro-1-H-azepinyl)-propoxyimino]-1-(E)-heptene], the LD50 at 336 h in data set [1] was above 1000 mg/kg; in data set [2], 30 to 100 mg/kg.
In the case of `CC(C)CCC(/C=C/c1ccc(Cl)cc1)=N\OCC(O)CN1CCCCC1` (racemic) [Example 37, (R,S)-1-(4-Chlorophenyl)-6-methyl-3-(E)-[2-hydroxy-3-(1-piperidinyl)-propoxyimino]-1-(E)-heptene], the LD50 at 336 h in data set [1] was above 1000 mg/kg; in data set [2], 100 to 300 mg/kg. This compound registered a half-inhibitory concentration (IC50) against H^+ /K^+ -ATP-ase of 21 µM. The ED50 in the data set on gastric-acid secretion (setting [6]) lay in the range of 30 to 100 mg/kg; in data set [5] (1 cm^3 abs. ethanol) it was 3 to 10 mg/kg. In data set [5] (p.o.), the “Ratio of acid-secretion inhibition and erosion inhibition” value is above 10.
For Sucralfate [reference compound], in data set [5] (p.o., 1 cm^3 abs. ethanol), the “Ethanol erosion ED50” value was determined as 69.0.
With `CC(C)CCC(/C=C/c1ccc(Cl)cc1)=N\OCCCN1CCCC1` [Example 41, 1-(4-Chlorophenyl)-6-methyl-3-(E)-[3-(N-pyrrolidinyl)-propoxyimino]-1-(E)-heptene], the median lethal dose (LD50) at 336 h in data set [1] was above 1000 mg/kg; in data set [2], 30 to 100 mg/kg. On H^+ /K^+ -ATP-ase, this compound yielded an IC50 of 9 µM. For the same compound, the ED50 is below 100 mg/kg in the data set with gastric-acid secretion (setting [6]) and 2 mg/kg in data set [5] (1 cm^3 abs. ethanol). For the same compound, the “Ratio of acid-secretion inhibition and erosion inhibition” value in data set [5] (p.o.) is recorded as below 50.
With `CC(C)CCC(/C=C/c1ccccc1)=N\OCCCN(C)C` [Example 5, 1-Phenyl-6-methyl-3-(E)-[3-(dimethylamino)-propoxyimino]-1-(E)-heptene], the minimal effective dose in the data set on Male Wistar rats [3] was above 30 mg/kg. Moreover, the ED50 with mice (mice, orally, 30 minutes) is above 100 mg/kg. The “Inhibition of the conditioned reflex (%)” value in the data set with Male Wistar rats [4] came out at 16%.
For `CCCC(/C=C/c1ccccc1)=N\OCCN(CC)CC` [Example 1, 1-Phenyl-3-(E)-[2-(diethylamino)-ethoxyimino]-1-(E)-hexene], in that order: 30 mg/kg, above 100 mg/kg and 10%.
The matching figures for `CCC(/C=C/c1ccccc1)=N\OCCN(C)C` [Example 14, 1-Phenyl-3-(E)-[2-(dimethylamino)-ethoxyimino]-1-(E)-pentene]: 10 mg/kg, above 100 mg/kg and 18%.
Turning to `CC(C)CCC(/C=C/c1ccc(F)cc1)=N\OCCCN1CCCCC1` [Example 38, 1-(4-Fluorophenyl)-6-methyl-3-(E)-[3-(N-piperidinyl)-propoximino]-1-(E)-heptene], the LD50 at 336 h lay in the range of 500 to 1000 mg/kg in data set [1] and 100 to 300 mg/kg in data set [2]. Also, at H^+ /K^+ -ATP-ase, 17 µM corresponded to half-maximal inhibition (IC50). Further, the figures for the ED50 (in the data set with gastric-acid secretion (setting [6]); in data set [5] (1 cm^3 abs. ethanol)) were 37.7 mg/kg and 1.3 mg/kg, respectively. In data set [5] (p.o.), the “Ratio of acid-secretion inhibition and erosion inhibition” value turned out to be 29.0.
Consider `CC(C)CCC(/C=C/c1ccc(Cl)cc1)=N/OCCC1CCCN1C` (stereo not shown) [Example 40, 1-(4-Chlorophenyl)-6-methyl-3-(Z)-[2-(2-N-methylpyrrolidinyl)-ethoxyimino]-1-(E)-heptene], for which the values for the LD50 at 336 h in data set [1] and in data set [2] were 1000 mg/kg and 100 to 300 mg/kg, respectively. The same compound came in with an IC50 against H^+ /K^+ -ATP-ase of 10 µM. Also, the ED50 is below 100 mg/kg in the data set with gastric-acid secretion (setting [6]) and 0.9 mg/kg in data set [5] (1 cm^3 abs. ethanol). In addition, the “Ratio of acid-secretion inhibition and erosion inhibition” value in data set [5] (p.o.) is on record as below 100.
For the compound `CN/C(=N/CCSCc1nc[nH]c1C)NC#N` [Cimetidine, reference compound], the ED50 in the data set on gastric-acid secretion (Rattus norvegicus, 4 h) was 59.1 mg/kg; in data set [5] (1 cm^3 abs. ethanol), 100 to 200 mg/kg. In addition, in data set [5] (p.o.), the “Ratio of acid-secretion inhibition and erosion inhibition” value was 0.3-0.6.
As to `CNC1=Nc2ccc(Cl)cc2C(c2ccccc2)=[N+]([O-])C1` [Chlorodiazepoxide, reference compound], the ED50 in the data set with mice (mice, orally, 30 minutes) worked out at 56 mg/kg.
Turning to `CC(C)CCC(/C=C/c1ccc(Cl)cc1)=N\OCCN(C)C` [Example 15], in the data set on Male Wistar rats [3], the minimal effective dose was found to be 3 mg/kg. Moreover, the ED50 with mice (mice, orally, 30 minutes) was above 100 mg/kg. Besides, in the data set on Male Wistar rats [4], the “Inhibition of the conditioned reflex (%)” value is 11%.
As for `CC(C)CCC(/C=C/c1ccc(Cl)cc1)=N\OCCCN(C)C` [Example 13, 1-(4-Chlorophenyl)-6-methyl-3-(E)-[3-(dimethylamino)-propoxyimino]-1-(E)-heptene], the minimal effective dose in the data set on Male Wistar rats [3] is above 30 mg/kg. Also, in the data set with mice (mice, orally, 30 minutes), the ED50 was above 100 mg/kg. Besides, the “Inhibition of the conditioned reflex (%)” value in the data set on Male Wistar rats [4] is listed as 12%.
The matching figures for `CCC(/C=C/c1ccc(Cl)cc1)=N\OCCN(C)C` [Example 7, 1-(4-Chlorophenyl)-3-(E)-[2-(dimethylamino)-ethoxyimino]-1-(E)-pentene]: 3 mg/kg, above 100 mg/kg and 22%.
